In patent US7777038B2, “Carbostyril compound” (Otsuka Pharmaceutical Co., Ltd., priority 2004, dated 2010):

Test system: human Trefoil Factor 2 (hTFF2) gene
Experiment: hTFF2 gene reporter assay (luciferase) using pGL3-hTFF2pro•pWL-neo/MKN-45 #6-2 cell line
Type: cell-based
Details: test compound concentration 10^−6 M; 24 hours culture; luciferase activity as control % of dimethylsulfoxide-added wells (100%)
Method: Transcription promoting activity on human Trefoil Factor 2 (hTFF2) gene of test compounds was evaluated by means of an hTFF2 gene reporter assay.
(1) Preparation of hTFF2 Gene Reporter Vector pGL3-hTFF2pro
DNA was extracted from HeLa cells (CCL-2, DAINIPPON PHARMACEUTICAL CO., LTD.) using a deoxyribonucleic acid (DNA) extraction kit (DNeasy™ Tissue Kit, manufactured by QIAGEN). The hTFF2 promoter region was amplified using the extracted DNA as a template by means of the polymerase chain reaction (PCR). The oligomers 5′-[…]-3′ and 5′-[…]-3′ were selected as PCR primers to be amplified, based on the report by Beck et al. (Beck S., Sommer P., Blin N., Gott P., 5′-flanking motifs control cell-specific expression of trefoil factor genes (TFF), Int. J. Mol. Med. 2(3), 353-361 (1998)). Platinum® Pfx DNA polymerase was used as DNA polymerase. The PCR was performed under the conditions of denaturing for 30 seconds at 95° C., annealing for 30 seconds at 55° C. and extending for 75 seconds at 68° C., and the procedures were repeated for 32 cycles.
The PCR products were separated and purified by 1% agarose gel electrophoresis, and cloned to a pCR-BluntII-TOPO vector attached to a cloning kit (Zero Blunt® TOPO® PCR Cloning Kit, manufactured by Invitrogen Corporation). The produced plasmid pCR-Blunt-TFF2pro was introduced into E. coli for transformation (TOP 10 Ultracomp™ Cells, manufactured by Invitrogen Corporation), and transformant strain pCR-Blunt-TFF2pro/TOP10 was selectively cultured in LB agar medium containing 30 μg/ml of Zeocin (Zeocin, manufactured by Invitrogen Corporation). The pCR-Blunt-TFF2pro/TOP10 was subjected to shaking culture in 50 ml of LB medium containing 30 μg/ml of Zeocin at 37° C. over night, and a plasmid was prepared using a plasmid preparation kit (Concert™ High Purity Midiprep System, manufactured by GIBCO BRL).
The nucleotide sequence of the PCR product cloned to the plasmid pCR-Blunt-TFF2pro was determined. The determined nucleotide sequence was compared with the counterpart of hTFF2 promoter region reported in a gene bank (GenBank accession AB038162). The nucleotide sequence of the MluI-HindIII region cloned in pCR-Blunt-TFF2pro was identical to GenBank accession AB038162 (FIG. 1).
The underlined portions indicate the recognition sequence (ACGCGT) of the restriction enzyme MluI and the recognition sequence (AAGCTT) of the restriction enzyme HindIII. The nucleotide sequences of the MluI-HindIII region are identical between the hTFF2 promoter region reported in GenBank and the PCR product cloned to the plasmid pCR-Blunt-TFF2pro. […]

Row | SMILES | TFF2 Production Promoting Activity
1 | COc1ccc(CC2SC(=O)NC2=O)c2c1N(Cc1ccc(NC(=O)c3ccc4ccccc4c3)cc1)C(=O)CC2 (centres unmarked) [Example 22, 5-{8-methoxy-1-[4-(2-naphthoylamino)benzyl]-2-oxo-1,2,3,4-tetrahydroquinolin-5-ylmethyl}thiazolidine-2,4-dione] | ++ (a TFF2 production promoting activity of 1000% or higher at a test compound concentration of 10^−6 M)
2 | CCCCOc1ccc(CC2SC(=O)NC2=O)c2c1N(Cc1ccccc1)C(=O)CC2 (centres unmarked) [Example 32, 5-(1-benzyl-8-butoxy-2-oxo-1,2,3,4-tetrahydroquinolin-5-ylmethyl)thiazolidine-2,4-dione] | + (a TFF2 production promoting activity of 300% or higher at a test compound concentration of 10^−6 M)

Test system: not given
Experiment: not given
Details: not given

Row | melting point | SMILES
3 | 182 to 184 °C | COC(=O)CN1C(=O)SC(Cc2ccc(OC)c3c2ccc(=O)n3C)C1=O (centres unmarked) [Example 43, 3-methoxycarbonylmethyl-5-(8-methoxy-1-methyl-2-oxo-1,2-dihydroquinolin-5-ylmethyl)thiazolidine-2,4-dione]
4 | 70 to 80 °C | Cl.O=C1NC(=S)SC1Cc1cccc2c1CCC(=O)N2Cc1ccc(Cl)nc1 (centres unmarked)
5 | 143 to 145 °C | CN1C(=O)SC(Cc2cc(=O)n(C)c3ccccc23)C1=O (centres unmarked) [Example 113]
6 | 198.3 to 200.3 °C | CCC(=O)Nc1ccc(CN2C(=O)CCc3c(CC4SC(=O)NC4=O)ccc(OC)c32)cc1 (centres unmarked) [Example 228]
7 | 215.2 to 217.8 °C | COc1ccc(CC2SC(=O)NC2=O)c2c1N(Cc1ccc(NC(C)=O)cc1)C(=O)CC2 (centres unmarked) [Example 229]
8 | 222 to 224 °C | COc1ccc(CCC2SC(=O)NC2=O)c2ccc(=O)n(C)c12 (centres unmarked) [Example 2, 5-[2-(8-methoxy-1-methyl-2-oxo-1,2-dihydroquinolin-5-yl)ethyl]thiazolidine-2,4-dione]
9 | 172 to 175 °C | COc1ccc(CCCC2SC(=O)NC2=O)c2ccc(=O)n(C)c12 (centres unmarked) [Example 3, 5-[3-(8-methoxy-1-methyl-2-oxo-1,2-dihydroquinolin-5-yl)propyl]thiazolidine-2,4-dione]
10 | 195.7 to 196.9 °C | CCNC(=O)Nc1ccc(CN2C(=O)CCc3c(CC4SC(=O)NC4=O)ccc(OC)c32)cc1 (centres unmarked) [Example 227]
11 | 243 to 244 °C | COc1ccc(CC2SC(=O)NC2=O)c2c1N(Cc1ccc(C(=O)Nc3ccc(C(C)C)cc3)cc1)C(=O)CC2 (centres unmarked) [Example 27, 5-{1-[4-(4-isopropylphenylaminocarbonyl)benzyl]-8-methoxy-2-oxo-1,2,3,4-tetrahydroquinolin-5-ylmethyl}thiazolidine-2,4-dione]
12 | 270 °C (dec.) | COc1ccc(C=C2SC(=O)N(C)C2=O)c2ccc(=O)n(C)c12 [Example 10, 5-[1-(8-Methoxy-1-methyl-2-oxo-1,2-dihydroquinolin-5-yl)methylidene]-3-methylthiazolidine-2,4-dione]
13 | 253 to 256 °C | COc1ccc(CC2SC(=O)NC2=O)c2c1NC(=O)CC2 (centres unmarked) [Example 146]
14 | 220.4 to 221.8 °C | O=C1NC(=O)C(Cc2cc3ccccc3n(Cc3ccc(-c4ccccc4)cc3)c2=O)S1 (centres unmarked) [Example 17, 5-[1-(Biphenyl-4-ylmethyl)-2-oxo-1,2-dihydroquinolin-3-ylmethyl]thiazolidine-2,4-dione]
15 | 246 to 248 °C | Cn1c(=O)cc(CC2SC(=O)NC2=O)c2ccccc21 (centres unmarked) [Example 112]
16 | 174.1 to 174.8 °C | COc1ccc(CC2SC(=O)NC2=O)c2c1N(Cc1ccc(N)cc1)C(=O)CC2 (centres unmarked) [Example 21, 5-[1-(4-aminobenzyl)-8-methoxy-2-oxo-1,2,3,4-tetrahydroquinolin-5-ylmethyl]thiazolidine-2,4-dione]
17 | 98 to 102 °C | CCCCCOC(=O)Nc1ccc(CN2C(=O)CCc3c(CC4SC(=O)NC4=O)ccc(OC)c32)cc1 (centres unmarked) [Example 23, 5-[1-(4-pentyloxycarbonylaminobenzyl)-8-methoxy-2-oxo-1,2,3,4-tetrahydroquinolin-5-ylmethyl]thiazolidine-2,4-dione]
18 | 255 °C (dec.) | COc1ccc(C2SC(=O)NC2=O)c2ccc(=O)n(C)c12 (centres unmarked) [Example 4, 5-(8-methoxy-1-methyl-2-oxo-1,2-dihydroquinolin-5-yl)thiazolidine-2,4-dione]
19 | ≥ 300 °C | COc1ccc(C=C2SC(=O)NC2=O)c2ccc(=O)n(C)c12 [Example 9, 5-[1-(8-Methoxy-1-methyl-2-oxo-1,2-dihydroquinolin-5-yl)methylidene]thiazolidine-2,4-dione]
20 | 246.5 to 246.6 °C | COc1ccc(CC2SC(=O)NC2=O)c2c1N(Cc1ccc([N+](=O)[O-])cc1)C(=O)CC2 (centres unmarked) [Example 20, 5-[8-methoxy-1-(4-nitrobenzyl)-2-oxo-1,2,3,4-tetrahydroquinolin-5-ylmethyl]thiazolidine-2,4-dione]
21 | 142.1 to 143.7 °C | O=C1NC(=O)C(Cc2cc(=O)n(Cc3ccc(Cl)cc3)c3ccccc23)S1 (centres unmarked) [Example 14, 5-[1-(4-chlorobenzyl)-2-oxo-1,2-dihydroquinolin-4-ylmethyl]thiazolidine-2,4-dione]
22 | 209.5 to 211 °C | CC(=O)N1CCC(CCN2C(=O)CCc3c(CC4SC(=O)NC4=O)cccc32)CC1 (centres unmarked) [Example 614]
23 | 251 to 255 °C | COc1ccc(CC2SC(=O)NC2=O)c2c1N(CC(=O)O)C(=O)CC2 (centres unmarked) [Example 34, 5-(1-carboxymethyl-8-methoxy-2-oxo-1,2,3,4-tetrahydroquinolin-5-ylmethyl)thiazolidine-2,4-dione]
24 | 191.3 to 192.1 °C | O=C1NC(=S)SC1Cc1cccc2c1CCC(=O)N2Cc1ccc(Br)cc1 (centres unmarked) [Example 47, 1-(4-bromobenzyl)-5-(4-oxo-2-thioxothiazolidin-5-ylmethyl)-3,4-dihydro-1H-quinolin-2-one]
25 | 290 to 291 °C | O=C1NC(=O)C(Cc2cc(=O)[nH]c3ccccc23)S1 (centres unmarked) [Example 111]
26 | 186.3 to 187.1 °C | O=C1NC(=S)SC1Cc1cccc2c1CCC(=O)N2Cc1ccc(-c2ccccc2)cc1 (centres unmarked) [Example 46, 1-(biphenyl-4-ylmethyl)-5-(4-oxo-2-thioxothiazolidin-5-ylmethyl)-3,4-dihydro-1H-quinolin-2-one]
27 | 233 to 234.2 °C | COc1ccc(CC2SC(=O)NC2=O)c2c1N(Cc1ccc(NC(=O)c3cccnc3)cc1)C(=O)CC2 (centres unmarked) [Example 231]
28 | 213.2 to 213.7 °C | O=C1NC(=O)C(Cc2ccc3c(c2)N(Cc2ccc(-c4ccccc4)cc2)C(=O)CC3)S1 (centres unmarked) [Example 18, 5-[1-(Biphenyl-4-ylmethyl)-2-oxo-1,2,3,4-tetrahydroquinolin-7-ylmethyl]thiazolidine-2,4-dione]
29 | 204 to 208 °C | COc1ccc(CC2SC(=O)NC2=O)c2c1N(C)C(=O)CC2 (centres unmarked) [Example 145]
30 | 213.2 to 213.7 °C | O=C1NC(=O)C(Cc2ccc(O)c3c2CCC(=O)N3Cc2ccccc2)S1 (centres unmarked) [Example 31, 5-(1-benzyl-8-hydroxy-2-oxo-1,2,3,4-tetrahydroquinolin-5-ylmethyl)thiazolidine-2,4-dione]
31 | 136.3 to 138.6 °C | COC(=O)Nc1ccc(CN2C(=O)CCc3c(CC4SC(=O)NC4=O)ccc(OC)c32)cc1 (centres unmarked) [Example 230]
32 | 179 to 181 °C | CCN1C(=O)CCc2c(CC3SC(=O)NC3=O)ccc(OC)c21 (centres unmarked) [Example 147]
